Measurements as given in patent publication US10758534B2 (Vertex Pharmaceuticals Incorporated, priority 2014, dated 2020).

Biological target: T1, F508del (Homo sapiens, UniProt P13569, DEL508-508)
T1 construct: expressed in transfected cells
Test: Protocol 2: FRET membrane potential optical assay (VIPR), identification of correction compounds
Type: cell-based
Details: F508del CFTR modulator activity; compounds of Table 1; read-out: EC30
Method in brief: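 Mouse NIH3T3 cells, stable F508del; cpd 16 hrs, 37° C., serum-free; pos ctrl 27° C. 16 hrs. Rinse in Krebs Ringers, dye load, then add 10 μM forskolin + 20 μM genistein with Cl^−-free (gluconate) medium; depolarization by FRET voltage dyes.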

T1 sequence (P13569 with tags, fused parts or gaps DEL508-508): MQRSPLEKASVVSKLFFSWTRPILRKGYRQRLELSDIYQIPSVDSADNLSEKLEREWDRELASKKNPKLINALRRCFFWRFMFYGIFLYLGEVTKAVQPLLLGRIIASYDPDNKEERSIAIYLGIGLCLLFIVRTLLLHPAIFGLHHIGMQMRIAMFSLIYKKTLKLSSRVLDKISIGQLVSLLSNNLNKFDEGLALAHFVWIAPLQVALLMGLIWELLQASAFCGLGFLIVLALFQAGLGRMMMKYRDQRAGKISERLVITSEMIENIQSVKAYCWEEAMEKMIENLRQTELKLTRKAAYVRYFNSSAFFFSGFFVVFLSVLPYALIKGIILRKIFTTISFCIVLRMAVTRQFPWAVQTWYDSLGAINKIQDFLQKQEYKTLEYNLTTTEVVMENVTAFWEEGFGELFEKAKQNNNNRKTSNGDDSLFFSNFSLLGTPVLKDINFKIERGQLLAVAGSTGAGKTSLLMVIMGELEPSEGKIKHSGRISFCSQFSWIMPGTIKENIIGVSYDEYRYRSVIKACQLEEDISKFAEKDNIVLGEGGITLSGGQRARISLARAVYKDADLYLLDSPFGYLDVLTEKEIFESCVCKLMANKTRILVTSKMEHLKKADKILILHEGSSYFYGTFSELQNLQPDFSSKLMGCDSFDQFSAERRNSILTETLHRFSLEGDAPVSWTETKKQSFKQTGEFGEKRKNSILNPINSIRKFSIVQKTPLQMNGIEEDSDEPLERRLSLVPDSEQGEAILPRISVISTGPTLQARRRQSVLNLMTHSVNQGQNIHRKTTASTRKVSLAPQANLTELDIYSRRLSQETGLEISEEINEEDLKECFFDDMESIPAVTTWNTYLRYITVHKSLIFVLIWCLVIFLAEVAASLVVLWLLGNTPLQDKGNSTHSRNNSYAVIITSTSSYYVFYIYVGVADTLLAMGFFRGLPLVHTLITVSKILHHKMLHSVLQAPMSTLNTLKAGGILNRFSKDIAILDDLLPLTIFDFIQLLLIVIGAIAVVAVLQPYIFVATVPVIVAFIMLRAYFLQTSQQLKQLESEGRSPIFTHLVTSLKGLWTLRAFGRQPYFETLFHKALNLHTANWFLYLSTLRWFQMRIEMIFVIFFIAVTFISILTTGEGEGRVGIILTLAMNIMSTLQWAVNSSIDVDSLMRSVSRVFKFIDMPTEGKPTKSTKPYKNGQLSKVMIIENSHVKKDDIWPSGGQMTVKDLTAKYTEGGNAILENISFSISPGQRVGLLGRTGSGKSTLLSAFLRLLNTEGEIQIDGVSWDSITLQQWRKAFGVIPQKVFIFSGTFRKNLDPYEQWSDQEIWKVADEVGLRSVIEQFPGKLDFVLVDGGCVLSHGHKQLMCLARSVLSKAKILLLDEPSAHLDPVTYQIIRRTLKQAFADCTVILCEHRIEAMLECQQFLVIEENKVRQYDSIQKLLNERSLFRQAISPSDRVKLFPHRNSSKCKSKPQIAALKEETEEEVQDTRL

SMILES | EC30 [nM]
CC(C)COc1cc(F)cc(-c2nc(N3C[C@@H](C)CC3(C)C)c(C(=O)NS(=O)(=O)c3cccc(N)n3)cc2F)c1 [Compound 2473, N-[(6-amino-2-pyridyl)sulfonyl]-5-fluoro-6-(3-fluoro-5-isobutoxy-phenyl)-2-[(4S)-2,2,4-trimethylpyrrolidin-1-yl]pyridine-3-carboxamide] | < 3000
C[C@@H]1CN(c2nc(C(C)(C)C)c(C(O)C(O)C3CCCCC3)cc2C(=O)NS(=O)(=O)c2cccc(N)n2)C(C)(C)C1 (stereo partly drawn) [Compound 2475] | < 3000
C[C@@H]1CN(c2nc(-c3cccc4[nH]ccc34)ccc2C(=O)NS(=O)(=O)c2cccnc2N)C(C)(C)C1 [Compound 2478, N-[(2-amino-3-pyridyl)sulfonyl]-6-(1H-indol-4-yl)-2-[(4S)-2,2,4-trimethylpyrrolidin-1-yl]pyridine-3-carboxamide] | < 3000
CC(C)COc1cc(F)cc(-c2ccc(C(=O)NS(=O)(=O)c3cccc(N)n3)c(N3CCC(C)CC(C)C3)n2)c1 (stereo not drawn) [Compound 2479, N-[(6-amino-2-pyridyl)sulfonyl]-2-(3,5-dimethylazepan-1-yl)-6-(3-fluoro-5-isobutoxy-phenyl)pyridine-3-carboxamide] | < 3000
CC(C)c1ccc(-c2ccc(C(=O)NS(=O)(=O)c3ccc[nH]c3=O)c(N3C[C@@H](C)CC3(C)C)n2)cc1 [Compound 2483, 6-(4-isopropylphenyl)-N-[(2-oxo-1H-pyridin-3-yl)sulfonyl]-2-[(4S)-2,2,4-trimethylpyrrolidin-1-yl]pyridine-3-carboxamide] | < 3000
CC1CN(c2ncccc2C(=O)NS(=O)(=O)c2cccc(Nc3cccc(C#N)c3)n2)C(C)(C)C1 (stereo not drawn) [Compound 2484, N—[[6-(3-cyanoanilino)-2-pyridyl]sulfonyl]-2-(2,2,4-trimethylpyrrolidin-1-yl)pyridine-3-carboxamide] | < 3000
COc1ccccc1-c1ccc(C(=O)NS(=O)(=O)c2ccc[nH]c2=O)c(N2C[C@@H](C)CC2(C)C)n1 [Compound 2485, 6-(2-methoxyphenyl)-N-[(2-oxo-1H-pyridin-3-yl)sulfonyl]-2-[(4S)-2,2,4-trimethylpyrrolidin-1-yl]pyridine-3-carboxamide] | < 3000
CCOc1cc(C)cc(-c2ccc(C(=O)NS(=O)(=O)c3cc[nH]n3)c(N3C[C@@H](C)CC3(C)C)n2)n1 [Compound 2487, 6-(6-ethoxy-4-methyl-2-pyridyl)-N-(1H-pyrazol-3-ylsulfonyl)-2-[(4S)-2,2,4-trimethylpyrrolidin-1-yl]pyridine-3-carboxamide] | < 3000
C[C@@H]1CN(c2nc(-c3cc(F)ccc3F)ccc2C(=O)NS(=O)(=O)N2CC[C@H](N)C2)C(C)(C)C1 [Compound 2489, N-[(3S)-3-aminopyrrolidin-1-yl]sulfonyl-6-(2,5-difluorophenyl)-2-[(4S)-2,2,4-trimethylpyrrolidin-1-yl]pyridine-3-carboxamide] | 3000 to 10000
Cc1ccc(F)cc1-c1ccc(C(=O)NS(=O)(=O)N2CC[C@H](N)C2)c(N2C[C@@H](C)CC2(C)C)n1 [Compound 2490, N-[(3S)-3-aminopyrrolidin-1-yl]sulfonyl-6-(5-fluoro-2-methyl-phenyl)-2-[(4S)-2,2,4-trimethylpyrrolidin-1-yl]pyridine-3-carboxamide] | < 3000
Cc1c(F)cccc1-c1ccc(C(=O)NS(=O)(=O)c2ccc[nH]c2=O)c(N2C[C@@H](C)CC2(C)C)n1 [Compound 2491, 6-(3-fluoro-2-methyl-phenyl)-N-[(2-oxo-1H-pyridin-3-yl)sulfonyl]-2-[(4S)-2,2,4-trimethylpyrrolidin-1-yl]pyridine-3-carboxamide] | < 3000
COC(=O)c1cccc(Nc2cccc(S(=O)(=O)NC(=O)c3cccnc3N3CC(C)CC3(C)C)n2)c1 (stereo not drawn) [Compound 2493, methyl 3-[[6-[[2-(2,2,4-trimethylpyrrolidin-1-yl)pyridine-3-carbonyl]sulfamoyl]-2-pyridyl]amino]benzoate] | < 3000
COc1ccc(-c2ccc(C(=O)NS(=O)(=O)c3cccnc3N)c(N3C[C@@H](C)CC3(C)C)n2)c(C)c1 [Compound 2494, N-[(2-amino-3-pyridyl)sulfonyl]-6-(4-methoxy-2-methyl-phenyl)-2-[(4S)-2,2,4-trimethylpyrrolidin-1-yl]pyridine-3-carboxamide] | < 3000
CC1CN(c2ncccc2C(=O)NS(=O)(=O)c2cccc(NCCC(=O)OC(C)(C)C)n2)C(C)(C)C1 (stereo not drawn) [Compound 2495, tert-butyl 3-[[6-[[2-(2,2,4-trimethylpyrrolidin-1-yl)pyridine-3-carbonyl]sulfamoyl]-2-pyridyl]amino]propanoate] | < 3000
COc1c(F)cc(F)cc1-c1ccc(C(=O)NS(=O)(=O)c2ccc[nH]c2=O)c(N2C[C@@H](C)CC2(C)C)n1 [Compound 2496, 6-(3,5-difluoro-2-methoxy-phenyl)-N-[(2-oxo-1H-pyridin-3-yl)sulfonyl]-2-[(4S)-2,2,4-trimethylpyrrolidin-1-yl]pyridine-3-carboxamide] | < 3000
CCOCCOc1ncc(-c2ccc(C(=O)NS(=O)(=O)c3cccnc3N)c(N3C[C@@H](C)CC3(C)C)n2)cc1C [Compound 2497, N-[(2-amino-3-pyridyl)sulfonyl]-6-[6-(2-ethoxyethoxy)-5-methyl-3-pyridyl]-2-[(4S)-2,2,4-trimethylpyrrolidin-1-yl]pyridine-3-carboxamide] | < 3000
COc1cc(C)cc(-c2cnc(N3CC(C)CC3(C)C)c(C(=O)NS(=O)(=O)c3cccc(N)n3)c2)c1 (stereo not drawn) [Compound 2499, N-[(6-amino-2-pyridyl)sulfonyl]-5-(3-methoxy-5-methyl-phenyl)-2-(2,2,4-trimethylpyrrolidin-1-yl)pyridine-3-carboxamide] | < 3000
CC1CN(c2ncccc2C(=O)NS(=O)(=O)c2cccc(N3CCN(Cc4ccccn4)CC3)n2)C(C)(C)C1 (stereo not drawn) [Compound 2504, N—[[6-[4-(2-pyridylmethyl)piperazin-1-yl]-2-pyridyl]sulfonyl]-2-(2,2,4-trimethylpyrrolidin-1-yl)pyridine-3-carboxamide] | 3000 to 10000
Cc1cc(F)cc(-c2ccc(C(=O)NS(=O)(=O)c3cccnc3N)c(N3C[C@@H](C)CC3(C)C)n2)c1 [Compound 2505, N-[(2-amino-3-pyridyl)sulfonyl]-6-(3-fluoro-5-methyl-phenyl)-2-[(4S)-2,2,4-trimethylpyrrolidin-1-yl]pyridine-3-carboxamide] | < 3000

More lines, now with the values ahead:

EC30 [nM] | SMILES
< 3000 | COc1ccc(F)c(-c2ccc(C(=O)NS(=O)(=O)c3cccnc3N)c(N3C[C@@H](C)CC3(C)C)n2)c1 [Compound 2474, N-[(2-amino-3-pyridyl)sulfonyl]-6-(2-fluoro-5-methoxy-phenyl)-2-[(4S)-2,2,4-trimethylpyrrolidin-1-yl]pyridine-3-carboxamide]
< 3000 | CC1CN(c2ncccc2C(=O)NS(=O)(=O)c2cccc(OCc3ccc(C(F)(F)F)nc3)n2)C(C)(C)C1 (stereo not drawn) [Compound 2476, N—[[6-[[6-(trifluoromethyl)-3-pyridyl]methoxy]-2-pyridyl]sulfonyl]-2-(2,2,4-trimethylpyrrolidin-1-yl)pyridine-3-carboxamide]
3000 to 10000 | C[C@@H]1CN(c2nc(-c3ccccc3O)ccc2C(=O)NS(=O)(=O)c2ccc[nH]c2=O)C(C)(C)C1 [Compound 2480, 6-(2-hydroxyphenyl)-N-[(2-oxo-1H-pyridin-3-yl)sulfonyl]-2-[(4S)-2,2,4-trimethylpyrrolidin-1-yl]pyridine-3-carboxamide]
< 3000 | COc1cc(F)ccc1-c1ccc(C(=O)NS(=O)(=O)c2cccnc2N)c(N2C[C@@H](C)CC2(C)C)n1 [Compound 2482, N-[(2-amino-3-pyridyl)sulfonyl]-6-(4-fluoro-2-methoxy-phenyl)-2-[(4S)-2,2,4-trimethylpyrrolidin-1-yl]pyridine-3-carboxamide]
< 3000 | CC1CN(c2ncccc2C(=O)NS(=O)(=O)c2cccc(Oc3ccccc3C(C)C)n2)C(C)(C)C1 (stereo not drawn) [Compound 2486, N—[[6-(2-isopropylphenoxy)-2-pyridyl]sulfonyl]-2-(2,2,4-trimethylpyrrolidin-1-yl)pyridine-3-carboxamide]
< 3000 | CCOC(=O)C1CCN(c2cccc(S(=O)(=O)NC(=O)c3cccnc3N3CC(C)CC3(C)C)n2)CC1 (stereo not drawn) [Compound 2488, ethyl 1-[6-[[2-(2,2,4-trimethylpyrrolidin-1-yl)pyridine-3-carbonyl]sulfamoyl]-2-pyridyl]piperidine-4-carboxylate]
< 3000 | CC(C)c1cccc(-c2ccc(C(=O)NS(=O)(=O)c3ccc[nH]c3=O)c(N3C[C@@H](C)CC3(C)C)n2)c1 [Compound 2498, 6-(3-isopropylphenyl)-N-[(2-oxo-1H-pyridin-3-yl)sulfonyl]-2-[(4S)-2,2,4-trimethylpyrrolidin-1-yl]pyridine-3-carboxamide]
< 3000 | C[C@@H]1CN(c2nc(-c3cccc(NCC(C)(C)C)n3)ccc2C(=O)NS(=O)(=O)c2cccnc2N)C(C)(C)C1 [Compound 2500, N-[(2-amino-3-pyridyl)sulfonyl]-6-[6-(2,2-dimethylpropylamino)-2-pyridyl]-2-[(4S)-2,2,4-trimethylpyrrolidin-1-yl]pyridine-3-carboxamide]
3000 to 10000 | CC(Oc1ncccc1C(=O)NS(=O)(=O)c1cccc(N)n1)c1ccccc1C(F)(F)F (stereo not drawn) [Compound 2501]
< 3000 | Cc1ccc(CCNc2cccc(S(=O)(=O)NC(=O)c3cccnc3N3CC(C)CC3(C)C)n2)cc1 (stereo not drawn) [Compound 2502, N—[[6-[2-(p-tolyl)ethylamino]-2-pyridyl]sulfonyl]-2-(2,2,4-trimethylpyrrolidin-1-yl)pyridine-3-carboxamide]
< 3000 | COc1ccc(Cl)cc1Oc1cccc(S(=O)(=O)NC(=O)c2cccnc2N2CC(C)CC2(C)C)n1 (stereo not drawn) [Compound 2503, N—[[6-(5-chloro-2-methoxy-phenoxy)-2-pyridyl]sulfonyl]-2-(2,2,4-trimethylpyrrolidin-1-yl)pyridine-3-carboxamide]
